Data from article PMC5764481, “Synthesis, characterization and in vitro antitrypanosomal activities of new carboxamides bearing quinoline moiety” (PLoS ONE, 2018).
Values joined by “and” are separate entries in the source; they are usually repeats but may differ in a detail not shown here. Identical values can stand only once. Like-named read-outs stand apart in the source and are kept apart here.

Columns and labels:
T. b. gambiense strain = experiment: In vitro antitrypanosomal activities (LILIT, Alamar Blue); format: cell-based, Trypanosoma brucei gambiense
Experimental: In vitro antitrypanosomal activities against T. b. gambiense strain was described by Otoguro et al. In brief, T. b. gambiense strain was cultured in IMDM with various supplements and 10% heat-inactivated FBS at 37°C, under 5.0% CO2/95% air according to the method of Baltz et al. Ninety five […] of the trypanosomes suspension (2.0–2.5104 trypanosomes/mL for strain GUTat 3.1) was seeded in a 96-well microplate, and […] of a test compound solution (dissolved in 5.0% dimethylsulfoxide) was added followed by incubation for 72 h (long incubation-low inoculation test: LILIT). Ten […] of the fluorescent dye Alamar Blue was added to each well. After incubation for 3–6 h, the resulting solution was read at 528/20 nm excitation wavelength and 590/35 nm emission wavelength by a FLx800 fluorescent plate reader (Bio-Tek Instrument, Inc. Vermont, USA). Data were transferred into a spreadsheet program (Excel). The IC50 values were determined using fluorescent plate reader software (KC-4, Bio-Tek). Successive subcultures were done in 24-well tissue culture plates under the same conditions.

T. b. rhodesiense = conditions: cited from earlier work
[1] = Determination of LD50 in mice; conditions: mouse, in vivo, ip; male mice, intraperitoneal, observed 72 h
Experimental: Male mice were divided into various groups and test compounds were administered in various doses intraperitoneally. […] All behavioral changes and deaths during the observation periods were recorded. The percentage of death at each dose level was then calculated, converted to probits and the LD50 (μM/kg) values were calculated. To observe the health status of the mice, they were monitored 4 times a day. […] For the purpose of ameliorating the suffering of the dying mice, CO2 euthanasia was applied. All the dead mice were disposed in bio-safety containers in accordance with local standard protocols. The mortality rate in each group was calculated according to the formula: Mortalityrate(%)=(thenumberofdeadmice/thenumberofmiceinthegroup)×100.

people = conditions: cited from earlier work
[2] = Trypanosoma brucei, T. b. gambiense strain GUTat 3.1, 72 h incubation, Alamar Blue fluorescence, read-out: IC50

For “1-(Benzenesulfonyl)-N-(quinolin-3-yl)pyrrolidine-2-carboxamide [Compound 11p]”, the IC50 (T. b. gambiense strain; read-out: IC50) was 4 nM.
“2-[N-(4-methylbenzenesulfonyl)-1-phenylformamido]-3-phenyl-N-(quinolin-3-yl)propanamide [Compound 11b]” showed an IC50 (T. b. gambiense strain; read-out: IC50) of 114 ± 0.05 nM.
“2-[N-(4-methylbenzenesulfonyl)-1-phenylformamido]-N-(quinolin-3-yl)acetamide [Compound 11a]” gave an IC50 (T. b. gambiense strain; read-out: IC50) of 136 ± 0.03 nM.
In the case of “4-Methyl-2-[N-(4-methylbenzenesulfonyl)-1-phenylformamido]-N-(quinolin-3-yl)pentanamide [Compound 11d]”, the IC50 (T. b. gambiense strain; read-out: IC50) is reported as 121 ± 0.05 nM.
In the case of “1-(4-Methylbenzenesulfonyl)-N-(quinolin-3-yl)pyrrolidine-2-carboxamide [Compound 11h]”, the IC50 (T. b. gambiense strain; read-out: IC50) is reported as 5 nM and 6 nM.
Compound “2-[N-(benzenesulfonyl)-1-phenylformamido]-3-phenyl-N-(quinolin-3-yl)propanamide [Compound 11j]” has an IC50 (T. b. gambiense strain; read-out: IC50) of 116 ± 0.04 nM.
Work on “2-[N-(benzenesulfonyl)-1-phenylformamido]-N-(quinolin-3-yl)acetamide [Compound 11i]” yielded an IC50 (T. b. gambiense strain; read-out: IC50) of 140 ± 0.03 nM.
“4-Hydroxy-1-(4-methylbenzenesulfonyl)-N-(quinolin-3-yl)pyrrolidine-2-carboxamide [Compound 11g]” showed an IC50 (T. b. gambiense strain; read-out: IC50) of 2 nM.
With “2-[N-(benzenesulfonyl)-1-phenylformamido]-3-methyl-N-(quinolin-3-yl)butanamide [Compound 11n]” the IC50 (T. b. gambiense strain; read-out: IC50) was 1 nM.
“3-Methyl-2-[N-(4-methylbenzenesulfonyl)-1-phenylformamido]-N-(quinolin-3-yl)butanamide [Compound 11f]” gave an IC50 (T. b. gambiense strain; read-out: IC50) of 3 nM.
In the case of `O=C(Nc1cnc2ccccc2c1)C(Cc1cc2ccccc2[nH]1)N(C(=O)c1ccccc1)S(=O)(=O)c1ccccc1` (stereo not shown) [Compound 11k, 2-[N-(benzenesulfonyl)-1-phenylformamido]-3-(1H-indol-2-yl)-N-(quinolin-3-yl)propanamide], the melting point is reported as 73.5 to 73.8 °C and the IC50 (T. b. gambiense strain; [2]) is reported as 109 ± 0.08 nM.
“1-(Benzenesulfonyl)-4-hydroxy-N-(quinolin-3-yl)pyrrolidine-2-carboxamide [Compound 11o]” gave an IC50 (T. b. gambiense strain; read-out: IC50) of 3 nM.
For “3-Methyl-2-[N-(4-nitrobenzenesulfonyl)-1-phenylformamido]-N-(quinolin-3-yl)pentanamide [Compound 11u]”, the IC50 (T. b. gambiense strain; read-out: IC50) was 114 ± 0.03 nM.
With `Cc1ccc(S(=O)(=O)N(C(=O)c2ccccc2)C(Cc2cc3ccccc3[nH]2)C(=O)Nc2cnc3ccccc3c2)cc1` (stereo not shown) [Compound 11c, 3-(1H-indol-2-yl)-2-[N-(4-methylbenzenesulfonyl)-1-phenylformamido]-N-(quinolin-3-yl)propanamide] the melting point was 88.1 to 88.8 °C and the IC50 (T. b. gambiense strain; [2]) was 106 ± 0.03 nM.
“2-[N-(4-nitrobenzenesulfonyl)-1-phenylformamido]-3-phenyl-N-(quinolin-3-yl)propanamide [Compound 11r]” gave an IC50 (T. b. gambiense strain; read-out: IC50) of 108 ± 0.09 nM.
For `NCCCC(N)(C(=O)O)C(F)F` (stereo not shown) [Eflornithine], the “effectiveness against T. b. rhodesiense” value (T. b. rhodesiense) is given as “ineffective”.
Work on “2-[N-(benzenesulfonyl)-1-phenylformamido]-4-methyl-N-(quinolin-3-yl)pentanamide [Compound 11l]” yielded an IC50 (T. b. gambiense strain; read-out: IC50) of 125 ± 0.1 nM.
“3-Methyl-2-[N-(4-nitrobenzenesulfonyl)-1-phenylformamido]-N-(quinolin-3-yl)butanamide [Compound 11v]” gave an IC50 (T. b. gambiense strain; read-out: IC50) of 1 nM.
“2-[N-(benzenesulfonyl)-1-phenylformamido]-3-methyl-N-(quinolin-3-yl)pentanamide [Compound 11m]” gave an IC50 (T. b. gambiense strain; read-out: IC50) of 125 ± 0.09 nM.
In the case of `Nc1nc(N)nc(Nc2ccc([As]3SCC(CO)S3)cc2)n1` (stereo not shown) [melarsoprol], the IC50 (T. b. gambiense strain; Trypanosoma brucei, GAMBIENSE, 72 h) is given as 5 nM, the LD50 at 72 h [1] is given as 7.21 ± 0.28 µmol/kg and the “people who die from adverse effects related to treatment” value (people) is given as 1–5%.
Work on “1-(4-Nitrobenzenesulfonyl)-N-(quinolin-3-yl)pyrrolidine-2-carboxamide [Compound 11x]” yielded an IC50 (T. b. gambiense strain; read-out: IC50) of 3 nM.
In the case of “2-[N-(4-nitrobenzenesulfonyl)-1-phenylformamido]-N-(quinolin-3-yl)acetamide [Compound 11q]”, the IC50 (T. b. gambiense strain; read-out: IC50) is reported as 128 ± 0.09 nM.
With “4-Methyl-2-[N-(4-nitrobenzenesulfonyl)-1-phenylformamido]-N-(quinolin-3-yl)pentanamide [Compound 11t]” the IC50 (T. b. gambiense strain; read-out: IC50) was 114 ± 0.09 nM.
In the case of “4-Hydroxy-1-(4-nitrobenzenesulfonyl)-N-(quinolin-3-yl)pyrrolidine-2-carboxamide [Compound 11w]”, the IC50 (T. b. gambiense strain; read-out: IC50) is reported as 2 nM.
